Results: patent publication US8921272B2, “Herbicidal composition” (Ishihara Sangyo Kaisha, Ltd., priority 2011, dated 2014)

Tests used:
Type in all cases: in vivo
[1] = test system: goosegrass (Eleusine indica (L.) Gaertn.); experiment: Test Example 1: soil treatment pot test, visually observed growth inhibition of goosegrass; conditions: soil treatment one day after sowing, 14 days after treatment, 0 = non-treated, 100 = complete kill, read-out: Growth inhibition rate (%) of goosegrass, Measured value
Excerpt: When the herbicidal activity in a case where two active ingredients are combined, is larger than the simple sum of the respective herbicidal activities of the two active ingredients (the expected activity), it is called a synergistic effect. The activity expected by the combination of two active ingredients can be calculated as follows (Colby S. R., “Weed”, vol. 15, p. 20-22, 1967). […] β: growth inhibition rate when treated with y (g/ha) of herbicide Y, E: growth inhibition rate expected when treated with x (g/ha) of herbicide X and y (g/ha) of herbicide Y. That is, when the actual growth inhibition rate (measured value) is larger than the growth inhibition rate by the above calculation (calculated value), the activity by the combination can be regarded as showing a synergistic effect. […] Further, in accordance with the Colby's formula, the growth inhibition rate (%) (calculated value) was calculated.

[2] = test system: bermuda grass (Cynodon dactylon (L.) Pers.); experiment: Test Example 2: foliar treatment pot test, visually observed growth inhibition of bermuda grass; conditions: 504 h, foliar treatment at 4.0 to 4.5 leaf stage, 0.25 vol % Agral, 21 days after treatment, read-out: Growth inhibition rate (%) of bermuda grass, Measured value
Excerpt: (§1) When the herbicidal activity in a case where two active ingredients are combined, is larger than the simple sum of the respective herbicidal activities of the two active ingredients (the expected activity), it is called a synergistic effect. The activity expected by the combination of two active ingredients can be calculated as follows (Colby S. R., “Weed”, vol. 15, p. 20-22, 1967). E=α+β−(α×β÷100) where α: growth inhibition rate when treated with x (g/ha) of herbicide X,
(§2) β: growth inhibition rate when treated with y (g/ha) of herbicide Y,
(§3) E: growth inhibition rate expected when treated with x (g/ha) of herbicide X and y (g/ha) of herbicide Y.
(§4) That is, when the actual growth inhibition rate (measured value) is larger than the growth inhibition rate by the above calculation (calculated value), the activity by the combination can be regarded as showing a synergistic effect.
(§5) Growth inhibition rate (%)=0 (equivalent to the non-treated area) to 100 (complete kill)
Upland field soil was put into a 1/1,000,000 ha pot, and seeds of bermuda grass (Cynodon dactylon (L.) Pers.) were sown. […]

[3] = test system: green kyllinga (Cyperus brevifolius var. leiolepis); experiment: Test Example 3: foliar treatment pot test, visually observed growth inhibition of green kyllinga; conditions: 672 h, read-out: Growth inhibition rate (%) of green kyllinga, Measured value
Excerpt: as §1, §2, §3, §4, §5
Upland field soil was put into a 1/1,000,000 ha pot, and tubers of green kyllinga (Cyperus brevifolius var. leiolepis) were planted. […]

corn (Zea mays L.) = experiment: Test Example 4: soil treatment pot test, visually observed growth inhibition of corn (crop plant which became weeds); conditions: soil treatment one day after sowing, 28 days after treatment, read-out: Growth inhibition rate (%) of corn, Measured value
Excerpt: When the herbicidal activity in a case where two active ingredients are combined, is larger than the simple sum of the respective herbicidal activities of the two active ingredients (the expected activity), it is called a synergistic effect. The activity expected by the combination of two active ingredients can be calculated as follows (Colby S. R., “Weed”, vol. 15, p. 20-22, 1967). […] β: growth inhibition rate when treated with y (g/ha) of herbicide Y, E: growth inhibition rate expected when treated with x (g/ha) of herbicide X and y (g/ha) of herbicide Y. That is, when the actual growth inhibition rate (measured value) is larger than the growth inhibition rate by the above calculation (calculated value), the activity by the combination can be regarded as showing a synergistic effect. […] One day later, water dispersible granules containing flazasulfuron as an active ingredient (tradename: SHIBAGEN DF) and water dispersible granules containing amicarbazone as an active ingredient ([…]) in predetermined amounts were diluted with water (corresponding to 200 Uha) and applied for soil treatment by a small sprayer.

COc1cc(OC)nc(NC(=O)NS(=O)(=O)c2ncccc2C(F)(F)F)n1 [Flazasulfuron, 1-(4,6-dimethoxypyrimidin-2-yl)-3-(3-trifluoromethyl-2-pyridylsulfonyl)urea]
inhibition at 37.5 g/ha ([1]; dose 37.5 g/ha): 53%
inhibition at 200 g/ha ([2]; dose 200 g/ha): 15%
inhibition at 5 g/ha ([3]; dose 5 g/ha, foliar treatment at 6.0 to 7.0 cm, 0.025 vol % Agral, 28 days after treatment): 0%
inhibition at 5 g/ha (corn (Zea mays L.); dose 5 g/ha): 40%

CC(C)c1nn(C(=O)NC(C)(C)C)c(=O)n1N [Amicarbazone, 4-amino-N-tertiary butyl-4,5-dihydro-3-isopropyl-5-oxo-1,2,4-1H-triazole-1-carboxamide]
inhibition at 1050 g/ha ([1]; dose 1050 g/ha): 68%
inhibition at 150 g/ha ([2]; dose 150 g/ha): 0%
inhibition at 1250 g/ha ([3]; foliar): 69%
inhibition at 2500 g/ha (corn (Zea mays L.); dose 2500 g/ha): 87%
